# Test results as given in patent publication US20190136254A1, “ALS Inhibitor Herbicide Tolerant Mutant Plants” (BASF SE, priority 2013, published 2019).
# Tests used:
# [1] = target: AHAS protein comprising the P197S mutation (Arabidopsis thaliana, UniProt P17597, P197S); experiment: biochemical; settings: for Resistance Factor P197S: AHAS P197S relative to WT; for pI50 P197S: AHAS P197S
# Method: (§1) Bacteria are grown at 37° C. in LB-medium containing 100 mg/l carbenicillin and 25 mg/l canamycin, induced with 1 mM isopropyl-β-D-thiogalactopyranoside at an OD600 of 0.6, cultivated for 16 hours at 18° C. and harvested by, e.g., centrifugation. Bacterial pellets are resuspended in 100 mM sodium phosphate buffer pH 7.0 containing 0.1 mM thiamine-pyrophosphate, 1 mM MgCl2, and 1 μM FAD at a concentration of 1 gram wet weight per 25 ml of buffer and disrupted by, e.g., sonification. The crude protein extract obtained after centrifugation is used for ALS activity measurements.
# (§2) ALS protein can be extracted from leaves or tissue cultures, such as B. napus or B. juncea leaves, or B. napus or B. juncea tissue cultures as described by Ray (Plant Physiol, 1984, 75:827-831). An ALS assays can be carried out in 96-well microtiter plates using a modification of the procedure described by Ray (1984): The reaction mixture contains 20 mM potassium phosphate buffer pH 7.0, 20 mM sodium pyruvate, 0.45 mM thiamine-pyrophosphate, 0.45 mM MgCl2, 9 μM FAD. ALS enzyme and various concentrations of ALS inhibitors can be mixed in a final volume of 90 μl. Assays can be initiated by adding enzyme and the assays can be terminated after 75 min incubation at 30° C. by the addition of 40 μl 0.5 M H2SO4.
# [2] = target: AHAS protein comprising the W574L mutation (Arabidopsis thaliana, UniProt P17597, W574L); experiment: biochemical; settings: for Resistance Factor W574L: AHAS W574L relative to WT; for pI50 W574L: AHAS W574L
# Method: as §1, §2
# AHAS protein WT = AHAS protein WT (Arabidopsis thaliana, UniProt P17597); experiment: biochemical; settings: for pI50 WT: AHAS WT
# Method: as §1, §2
# [3] = target: AHAS protein comprising both the P197S and W574L mutation in one ALS protein (Arabidopsis thaliana, UniProt P17597, P197S/W574L); format: biochemical; settings: both mutations in one ALS protein; for Resistance Factor P197S-W574L (in one protein): relative to WT
# Method: as §1, §2
# [4] = target: mixture of two ALS proteins, one comprising the P197S and the other the W574L mutation (Arabidopsis thaliana, UniProt P17597, P197S/W574L); experiment: biochemical; settings: for Resistance Factor P197S & W574L (mixture): calculated mixture of two ALS proteins, relative to WT; for pI50 P197S & W574L (mixture): mixture of two ALS proteins, calculated as described in WO 2013/127766
# [5] = test system: oilseed rape homozygous for HETO133 and HETO134; experiment: Field test of visible phytotoxicity upon herbicide spraying, HETO133-HETO134; format: in vivo, Brassica napus; settings: g ai/ha: imazamox 40, bispyribac-sodium 50, propoxycarbazone-sodium 70, mesosulfuron-methyl 60, pyroxsulam 12.5 + cloquintocet-mexyl 37.5, each + rapeseed oil methylated 366.5, 0%=no phytotoxic effects, 100%=all plants killed
# Source text: (§3) Seeds of spring oilseed rape homozygous for HETO132 and HETO134, and seeds of spring oilseed rape homozygous for HETO133 and HETO 134 were sown in a field according to typical practical agricultural methods. Several ALS inhibitor herbicides were applied to the oilseed rape plants by using specific spray equipment for small plot applications. […] The use of all herbicides in the test lead to a clearly better tolerance of the spring oilseed rape lines homozygous for HETO132 and HETO134 as compared to a standard variety not comprising ALS alleles according to the invention.
# [6] = test system: oilseed rape homozygous for HETO132 and HETO134; experiment: Field test of visible phytotoxicity upon herbicide spraying, HETO132-HETO134; format: in vivo, Brassica napus; settings: g ai/ha: imazamox 40, bispyribac-sodium 50, propoxycarbazone-sodium 70, mesosulfuron-methyl 60, pyroxsulam 12.5 + cloquintocet-mexyl 37.5, each + rapeseed oil methylated 366.5, 0%=no phytotoxic effects, 100%=all plants killed
# Source text: as §3
# [7] = test system: wild-type (WT) oilseed rape; experiment: Field test of visible phytotoxicity upon herbicide spraying, wild-type; format: in vivo, Brassica napus; settings: g ai/ha: imazamox 40, bispyribac-sodium 50, propoxycarbazone-sodium 70, mesosulfuron-methyl 60, pyroxsulam 12.5 + cloquintocet-mexyl 37.5, each + rapeseed oil methylated 366.5, 0%=no phytotoxic effects, 100%=all plants killed
# Source text: as §3
# Sequence of AHAS protein comprising the W574L mutation (P17597 56-670 W574L): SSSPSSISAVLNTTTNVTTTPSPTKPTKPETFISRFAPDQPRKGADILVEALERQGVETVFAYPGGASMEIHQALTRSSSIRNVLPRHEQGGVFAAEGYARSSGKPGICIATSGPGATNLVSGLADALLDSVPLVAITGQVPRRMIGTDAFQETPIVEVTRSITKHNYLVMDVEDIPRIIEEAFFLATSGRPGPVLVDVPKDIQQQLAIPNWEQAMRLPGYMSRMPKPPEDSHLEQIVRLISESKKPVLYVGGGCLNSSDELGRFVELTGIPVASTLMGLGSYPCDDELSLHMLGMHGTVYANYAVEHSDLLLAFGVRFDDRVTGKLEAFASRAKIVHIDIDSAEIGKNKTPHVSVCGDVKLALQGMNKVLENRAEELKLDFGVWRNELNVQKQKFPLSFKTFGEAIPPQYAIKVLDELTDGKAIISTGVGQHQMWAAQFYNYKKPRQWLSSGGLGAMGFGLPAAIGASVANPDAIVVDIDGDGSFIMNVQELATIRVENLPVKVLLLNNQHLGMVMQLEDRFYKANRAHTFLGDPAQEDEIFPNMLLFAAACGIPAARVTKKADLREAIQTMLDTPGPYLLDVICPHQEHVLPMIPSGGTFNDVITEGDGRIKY
# Sequence of mixture of two ALS proteins, one comprising the P197S and the other the W574L mutation (P17597 56-670 P197S/W574L): as the sequence (P17597 56-670 W574L) above, with P142S counted along it
# Sequence of AHAS protein comprising both the P197S and W574L mutation in one ALS protein (P17597 56-670 P197S/W574L): as the sequence (P17597 56-670 W574L) above, with P142S counted along it
# Sequence of AHAS protein WT (P17597 56-670): as the sequence (P17597 56-670 W574L) above, with L519W counted along it
# Sequence of AHAS protein comprising the P197S mutation (P17597 56-670 P197S): as the sequence (P17597 56-670 W574L) above, with P142S, L519W counted along it
Structure (SMILES),IC50 [1],Resistance Factor P197S [1],IC50 [2],Resistance Factor W574L [2],IC50 (AHAS protein WT),pI50 P197S-W574L (in one protein) [3],Resistance Factor P197S-W574L (in one protein) [3],IC50 [4],Resistance Factor P197S & W574L (mixture) [4],also measured
"COc1cc(OC)nc(NC(=O)NS(=O)(=O)N(C)S(C)(=O)=O)n1 [Amidosulfuron, amidosulfuron]",> 100000 nM,>488,> 100 µM,>488,200 nM,<4,>488,> 100 µM,>501,
"COc1cc(OC)nc(Oc2cccc(Oc3nc(OC)cc(OC)n3)c2C(=O)O)n1 [Bispyribac-sodium, bispyribac-sodium]",79.4 nM,4,7.94 µM,447,15.8 nM,<4,>5623,0.794 µM,40,Percentage phytotoxicity 9 DAA HETO133-HETO134 [5]: 56.7%; Percentage phytotoxicity 16 DAA HETO133-HETO134 [5]: 88.3%; Percentage phytotoxicity 24 DAA HETO133-HETO134 [5]: 92.7%; Percentage phytotoxicity 9 DAA HETO132-HETO134 [6]: 46.7%; Percentage phytotoxicity 16 DAA HETO132-HETO134 [6]: 71.7%; Percentage phytotoxicity 24 DAA HETO132-HETO134 [6]: 43.3%; Percentage phytotoxicity 9 DAA wild-type [7]: 76.7%; Percentage phytotoxicity 16 DAA wild-type [7]: 98.3%; Percentage phytotoxicity 24 DAA wild-type [7]: 100%
"COc1cc(OC)nc(NC(=O)NS(=O)(=O)c2ncccc2C(F)(F)F)n1 [Flazasulfuron, flazasulfuron]",100 nM,120,3.16 µM,3802,0.794 nM,<4,>120226,0.631 µM,794,
"COc1ncc(F)c2nc(S(=O)(=O)Nc3c(F)cccc3F)nn12 [Florasulam, florasulam]",,28,,1738,,<4,>6918,,200,pI50 P197S [1]: 6.4; pI50 W574L [2]: 4.6; pI50 WT (AHAS protein WT): 7.8; pI50 P197S & W574L (mixture) [4]: 5.5
COC(=O)c1ccc(C(F)(F)F)nc1S(=O)(=O)NC(=O)Nc1nc(OC)cc(OC)n1 [Flupyrsulfuron-methyl],,,,,,,>47863,,,
"COCc1cnc(C2=NC(C)(C(C)C)C(=O)N2)c(C(=O)O)c1 (centres unmarked) [Imazamox, imazamox]",5010 nM,1,> 100 µM,>22,3980 nM,<4,>22,79.4 µM,20,Percentage phytotoxicity 9 DAA HETO133-HETO134 [5]: 6.7%; Percentage phytotoxicity 16 DAA HETO133-HETO134 [5]: 10%; Percentage phytotoxicity 24 DAA HETO133-HETO134 [5]: 0%; Percentage phytotoxicity 9 DAA HETO132-HETO134 [6]: 6.7%; Percentage phytotoxicity 16 DAA HETO132-HETO134 [6]: 8.7%; Percentage phytotoxicity 24 DAA HETO132-HETO134 [6]: 0%; Percentage phytotoxicity 9 DAA wild-type [7]: 73.3%; Percentage phytotoxicity 16 DAA wild-type [7]: 98%; Percentage phytotoxicity 24 DAA wild-type [7]: 99%
"COC(=O)c1ccc(I)cc1S(=O)(=O)[N-]C(=O)Nc1nc(C)nc(OC)n1.[Na+] [Iodosulfuron-methy-sodium, iodosulfuron-methyl-sodium]",,139,,555,,,>35030,,316,
"COC(=O)c1ccc(CNS(C)(=O)=O)cc1S(=O)(=O)NC(=O)Nc1nc(OC)cc(OC)n1 [Mesosulfuron-methyl, mesosulfuron-methyl]",,65,,25770,,,>64730,,794,
"COc1cc(OC)n2nc(S(=O)(=O)Nc3c(Cl)ccc(C)c3Cl)nc2n1 [Metosulam, metosulam]",1580 nM,457,20 µM,5754,3.16 nM,<4,>28840,6.31 µM,2512,
"COC(=O)c1ccccc1S(=O)(=O)NC(=O)Nc1nc(C)nc(OC)n1 [Metsulfuron-methyl, metsulfuron-methyl]",,38,,755,,,>7547,,,
"COc1cc(OC)nc(NC(=O)NS(=O)(=O)c2ncccc2C(=O)N(C)C)n1 [Nicosulfuron, nicosulfuron]",1000 nM,6,> 100 µM,>607,158 nM,<4,>607,31.6 µM,251,
"CCCOc1nn(C(=O)[N-]S(=O)(=O)c2ccccc2C(=O)OC)c(=O)n1C.[Na+] [PROPOXYCARBAZONE-SODIUM, propoxycarbazone-sodium]",,,,,,,,,,Percentage phytotoxicity 9 DAA HETO133-HETO134 [5]: 53.3%; Percentage phytotoxicity 16 DAA HETO133-HETO134 [5]: 82.7%; Percentage phytotoxicity 24 DAA HETO133-HETO134 [5]: 76.7%; Percentage phytotoxicity 9 DAA HETO132-HETO134 [6]: 40%; Percentage phytotoxicity 16 DAA HETO132-HETO134 [6]: 36.7%; Percentage phytotoxicity 24 DAA HETO132-HETO134 [6]: 11.7%; Percentage phytotoxicity 9 DAA wild-type [7]: 76.7%; Percentage phytotoxicity 16 DAA wild-type [7]: 97%; Percentage phytotoxicity 24 DAA wild-type [7]: 97.7%
CCCOc1nn(C(=O)[N-]S(=O)(=O)c2ccccc2C(=O)OC)c(=O)n1C.[Na+] [Propoxycarbazone],,147,,293,,,>4641,,200,
"COc1cc(OC)n2nc(NS(=O)(=O)c3c(C(F)(F)F)ccnc3OC)nc2n1 [Pyroxsulam, pyroxsulam]",,261,,>41368,,<4,>41368,,6310,pI50 P197S [1]: 6.2; pI50 W574L [2]: <4; pI50 WT (AHAS protein WT): 8.6; pI50 P197S & W574L (mixture) [4]: 4.8
"CCS(=O)(=O)c1cccnc1S(=O)(=O)NC(=O)Nc1nc(OC)cc(OC)n1 [Rimsulfuron, rimsulfuron]",398 nM,18,10 µM,447,20 nM,<4,>4466,2 µM,63,
"CCS(=O)(=O)c1nc2ccccn2c1S(=O)(=O)NC(=O)Nc1nc(OC)cc(OC)n1 [Sulfosulfuron, sulfosulfuron]",39800 nM,1848,> 100 µM,>4641,20 nM,<4,>4641,251 µM,10000,
"COC(=O)c1csc(C)c1S(=O)(=O)NC(=O)n1nc(OC)n(C)c1=O [Thiencarbazone-methyl, thiencarbazone-methyl]",,1173,,1173,,,>7399,,1259,
"COC(=O)c1sccc1S(=O)(=O)NC(=O)Nc1nc(C)nc(OC)n1 [Thifensulfuron-Methyl, thifensulfuron-methyl]",7940 nM,200,63.1 µM,1585,39.8 nM,<4,>2511,25.1 µM,631,
